Measured values taken from US12187733B1, “5-(Substitutedphenyl)-7-Imino-7,8-Dihydropyrimido[4,5-d]pyrimidine-2,4(1H,3H)-dione analogues as anti-inflammatory agents” (KING FAISAL UNIVERSITY, priority 2023, dated 2025).
pIC50: −log10 of the molar value.

Experiment: Anti-inflammatory activity
Excerpt: Anti-Inflammatory Activity

Row | pIC50 | SMILES
1 | 6.98 | [H]/N=c1\nc(-c2ccc(OC)c(O)c2)c2c(=O)n(C)c(=O)n(C)c2[nH]1 [Compound 4d, 5-(3-Hydroxy-4-methoxyphenyl)-7-imino-1,3-dimethyl-7,8-dihydropyrimido[4,5-d]pyrimid-ine-2,4 (^1H,3H)-dione]
2 | 6.61 | [H]/N=c1\nc(-c2cccc(OCc3ccccc3)c2)c2c(=O)[nH]c(=O)[nH]c2[nH]1 [Compound 4a, 5-(3-(Benzyloxy)phenyl)-7-imino-7,8-dihydropyrimido[4,5-d]pyrimidine-2,4 (^1H,3H)-dione]
3 | 7.04 | [H]/N=c1\nc(-c2ccc(OCc3ccccc3)cc2)c2c(=O)[nH]c(=O)[nH]c2[nH]1 [Compound 4b, 5-(4-(Benzyloxy)phenyl)-7-imino-7,8-dihydropyrimido[4,5-d]pyrimidine-2,4 (^1H,3H)-dione]
4 | 6.66 | [H]/N=c1\nc(-c2ccc(OC)c(O)c2)c2c(=O)[nH]c(=O)[nH]c2[nH]1 [Compound 4c, 5-(3-Hydroxy-4-methoxyphenyl)-7-imino-7,8-dihydropyrimido[4,5-d]pyrimidine-2,4 (^1H,3H)-dione]
